Reference: ChEMBL document CHEMBL2406943, “ABCB1 Structural Models, Molecular Docking, and Synthesis of New Oxadiazolothiazin-3-one Inhibitors” (ACS Med Chem Lett, 2013)

Biological target: MDR1 (ABCB1, P-glycoprotein) (Homo sapiens, UniProt P08183)
Experiment: Inhibition of MDR1 in multidrug resistant human A2780/DX3 cells assessed as accumulation of doxorubicin at 5 times compound concentration that giving 5% antiproliferative activity after 4 hrs by cytofluorimetric assay relative to (Z)-8-(4-chlorophenyl)-5-methyl-8-(pent-2-enyl-oxy)-[1,2,4]oxadiazolo[3,4-c][1,4]thiazin-3(8H)-one
Assay type: cell-based, A2780 ADR
Conditions: probe doxorubicin

Chain of MDR1 (ABCB1, P-glycoprotein) (P08183 whole entry): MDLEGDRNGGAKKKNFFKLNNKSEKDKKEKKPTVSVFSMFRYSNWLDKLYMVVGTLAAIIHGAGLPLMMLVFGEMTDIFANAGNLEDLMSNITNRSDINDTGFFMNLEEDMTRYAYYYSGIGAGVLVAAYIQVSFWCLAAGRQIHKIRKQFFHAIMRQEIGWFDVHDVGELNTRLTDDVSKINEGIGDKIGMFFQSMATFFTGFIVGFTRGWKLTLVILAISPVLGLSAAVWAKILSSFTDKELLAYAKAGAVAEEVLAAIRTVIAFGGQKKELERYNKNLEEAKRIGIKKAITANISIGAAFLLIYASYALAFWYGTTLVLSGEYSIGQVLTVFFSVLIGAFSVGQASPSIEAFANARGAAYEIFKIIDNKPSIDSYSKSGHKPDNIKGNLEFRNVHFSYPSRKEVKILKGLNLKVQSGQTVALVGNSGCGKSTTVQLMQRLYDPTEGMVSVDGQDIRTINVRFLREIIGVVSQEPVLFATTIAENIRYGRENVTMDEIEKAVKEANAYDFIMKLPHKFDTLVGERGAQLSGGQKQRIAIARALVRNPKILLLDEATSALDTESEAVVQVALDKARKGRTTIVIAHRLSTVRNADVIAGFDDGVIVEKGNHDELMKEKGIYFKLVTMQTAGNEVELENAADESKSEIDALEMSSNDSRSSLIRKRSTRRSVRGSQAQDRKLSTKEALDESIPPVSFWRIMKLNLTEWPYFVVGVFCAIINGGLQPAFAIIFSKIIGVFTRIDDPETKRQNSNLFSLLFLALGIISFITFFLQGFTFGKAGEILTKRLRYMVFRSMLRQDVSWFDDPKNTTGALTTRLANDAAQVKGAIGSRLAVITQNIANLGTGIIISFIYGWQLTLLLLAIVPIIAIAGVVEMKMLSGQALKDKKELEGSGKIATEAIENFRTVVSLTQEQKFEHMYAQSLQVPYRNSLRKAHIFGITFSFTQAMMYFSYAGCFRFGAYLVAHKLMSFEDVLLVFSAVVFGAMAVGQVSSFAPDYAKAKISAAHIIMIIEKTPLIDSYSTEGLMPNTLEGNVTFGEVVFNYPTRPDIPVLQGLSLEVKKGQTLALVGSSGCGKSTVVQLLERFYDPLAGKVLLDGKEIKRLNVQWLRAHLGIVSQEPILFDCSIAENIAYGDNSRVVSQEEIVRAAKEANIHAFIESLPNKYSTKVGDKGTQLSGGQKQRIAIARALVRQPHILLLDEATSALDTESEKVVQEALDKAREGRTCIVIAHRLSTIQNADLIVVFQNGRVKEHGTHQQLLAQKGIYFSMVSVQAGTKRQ

Row | Structure (SMILES) | inhibition at 4 h
1 | CC/C=C\CO[C@]1(c2ccc(Cl)cc2)SC=C(C)n2c1noc2=O | 48%
2 | CC/C=C\CO[C@@]1(c2ccc(Cl)cc2)SC=C(C)n2c1noc2=O | 136%
3 | CCCCCCOC1(c2ccc(Br)cc2)SC=C(C)n2c1noc2=O (racemic) | 72%
4 | CC/C=C/COC1(c2ccc(Cl)cc2)SC=C(C)n2c1noc2=O (racemic) | 35%
5 | CCC/C=C\COC1(c2ccc(Cl)cc2)SC=C(C)n2c1noc2=O (racemic) | 131%
6 | CCC/C=C/COC1(c2ccc(Cl)cc2)SC=C(C)n2c1noc2=O (racemic) | 109%
7 | CCCCCCOC1(c2ccc(Cl)cc2)SC=C(C)n2c1noc2=O (racemic) | 18%
8 | CC/C=C\COC1(c2ccc(Br)cc2)SC=C(C)n2c1noc2=O (racemic) | 139%
